This is an account of results in PubChem BioAssay AID2060603 (Molecular Pharmacology Branch, DTP, NCI, 2025).

Several values for one entry are separate records, joined by “and”; a condition that tells them apart may be missing. Equal values may be shown once.

This assay concerns 422866-222-R5-J1-PDC spheroid viability. The assay is described as follows: Anticancer human tumor 422866-222-R5-J1-PDC patient-derived pancreatic adenocarcinoma cell line growth inhibition [CLK]. The note with it: spheroids with HUVEC and MSC; for viability, T/C: stronger effect = lower value. From the text: A high-throughput screen of multi-cell type tumor spheroids was designed to identify active combinations of […] and targeted small molecules. Complex spheroids include a stromal component modeled by human endothelial cells (HUVEC) and fibroblasts modeled by human mesenchymal stem cells (MSCs). The concentration ranges selected for each drug and investigational agent were based upon clinically achievable concentrations if the clinical Cmax of the agent was known.
Compounds. The drugs and investigational agents: cirtuvivint (SM08502; NSC835563), CC-671 (NSC850746), vemurafenib (NSC761431), tapotoclax (NSC804041), sotorasib (NSC818433), adagrasib (NSC831453), MRTX-1133 (NSC836407), BAY2416964 (NSC825713), copanlisib (NSC816437), inavolisib (NSC800729), abemaciclib (NSC768073), osimertinib (NSC779217), entinostat (NSC756642), eltanexor (KPT-8602, NSC794443), venetoclax (NSC766270), ceralasertib (NSC777638), bortezomib (NSC756655), olaparib (NSC753686), talazoparib (NSC767125), alisertib (NSC759677), peposertib (NSC802822), gemcitabine (NSC613327), 5-fluorouracil (NSC19893), SN-38 (NSC673596), oxaliplatin (NSC266046), paclitaxel (NSC125973), and doxorubicin (NSC123127), were obtained from the National Cancer Institute (NCI) Developmental Therapeutics Program Chemical Repository. The FDA-approved anticancer drug set is available from the Developmental Therapeutics Program at https://dtp.cancer.gov/organization/dscb/obtaining/available plates.htm. […] The stock solutions were prepared in dimethyl sulfoxide (DMSO, Sigma-Aldrich, St. Louis, MO, cat. D2650), except for the platinum complexes which were prepared in saline (Quality Biological, Gaithersburg, MD, cat. 114-055-101), at 800-fold the tested concentration and stored at -70 degrees C prior to their use. All drugs and investigational agents were tested over a range starting from a high concentration at or near the clinical Cmax and decreasing in half-log increments. If the clinical Cmax for an agent had not been determined, the highest concentration tested was 10 microM.
Cell Culture. All cells were maintained in an incubator at 37 degrees C and 5% CO2 with 95% humidity. The PDC lines were cultured according to standard operating procedures established by the NCI PDMR. Briefly, all PDCs were thawed and cultured in Matrigel-coated flasks prepared with a working solution of 1X Ham's F-12 nutrient mix, without supplementation (Invitrogen, Waltham, MA, cat. 11765054), 100 U/mL penicillin-streptomycin (Invitrogen, cat. 15140122), and 2.5% Matrigel (Corning Inc., Corning, NY, cat. 354248) for the first three passages. The 947758-054-R-J2-PDC line was cultured in 6B/Colon 1A media, which includes advanced DMEM/F-12 (Thermo Fisher Scientific, cat. 12634028), 10 mM HEPES (Thermo Fisher Scientific, cat. 15630080), 1X GlutaMAX supplement (Thermo Fisher Scientific, cat. 35050061), 0.1 mg/mL primocin (InvivoGen, cat. ant-pm-2), 10% defined fetal bovine serum, heat inactivated (HyClone Laboratories Inc., cat. SH30070.03HI), 1.25 mM N-Acetyl-L-cysteine (Sigma-Aldrich, cat. A9165), 10 mM nicotinamide (Sigma-Aldrich, cat. N0636), 1X B-27 supplement (Thermo Fisher Scientific, cat. 17504044), 1X N-2 supplement (Thermo Fisher Scientific, cat. 17502048), and 10 microM Y-27632 dihydrochloride (Tocris Bioscience, cat. 1254). The 876862-298-R-J1-PDC was cultured in 6E media, which includes all 6B/Colon 1A media components plus 50% L-WRN conditioned media (ATCC, cat. CRL-3276), 50 ng/mL recombinant human EGF recombinant protein (hEGF; Thermo Fisher Scientific, cat. PHG0311), 10 ng/mL recombinant human fibroblast growth factor 10 (hGFG-10; PeproTech, cat. 100-26), 1 ng/mL recombinant human fibroblast growth factor 2 (hFGF-2; PeproTech, cat. 100-18B), and 1 µM prostaglandin E2 (PGE2; Tocris, cat. 2296). The 227483-062-R1-J1-PDC line was cultured in Panc media, containing all 6E components except hFGF-2, with the addition of 500 nM SB-431542 (Selleckchem, cat. S1067) and 10 nM gastrin (Tocris, cat. 3006). […]
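Further: spheroids exposed to agents for seven days before readout.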

On to `C#Cc1c(F)ccc2cc(O)cc(-c3ncc4c(N5CC6CCC(C5)N6)nc(OCC56CCCN5CC(F)C6)nc4c3F)c12` (stereo unspecified), for which the viability, T/C (commonly the result in the treated group divided by that in the control group, in per cent) reads like this: (compound 0.0316 µM) 76.7% and 87.4%; (compound 0.1 µM) 73.1% and 85.8%; (compound 0.316 µM) 55.9% and 64.3%; (compound 1 µM) 51.7% and 67%; (compound 3.16 µM) 36.1% and 38.3%; (compound 10 µM) 26.8% and 29.4%. In addition, under “curve of compound”, the IC50 (in general, the concentration that inhibits the measured activity by half) is 881 nM and 1900 nM.

Consider `C=C(F)C(=O)N1CCN(c2nc(OCC3CCCN3C)nc3c2CCN(c2cccc4cccc(Cl)c24)C3)CC1CC#N` (stereo unspecified), for which the viability, T/C by setting is: (compound 0.0316 µM) 31.6% and 42%; (compound 0.1 µM) 23.6% and 24.5%; (compound 0.316 µM) 19.6% and 21%; (compound 1 µM) 26.1% and 22.8%; (compound 3.16 µM) 11.2% and 15.2%; (compound 10 µM) 0.14%. Also, the IC50 (curve of compound) was below 31.6 nM.

As for `C=CC(=O)N1CCN(c2nc(=O)n(-c3c(C)ccnc3C(C)C)c3nc(-c4c(O)cccc4F)c(F)cc23)C(C)C1` (stereo unspecified), the viability, T/C (compound 0.0316 µM) is 33% and 35.7%; the viability, T/C (compound 0.1 µM) is 27% and 28.4%; the viability, T/C (compound 0.316 µM) is 24.9% and 25.6%; the viability, T/C (compound 1 µM) is 27.6% and 25.6%; the viability, T/C (compound 3.16 µM) is 32.8% and 25.4%; the viability, T/C (compound 10 µM) is 25.2% and 30%. For the same compound, the IC50 (curve of compound) was below 31.6 nM.

In the case of `C=CC(=O)Nc1cc(Nc2nccc(-c3cn(C)c4ccccc34)n2)c(OC)cc1N(C)CCN(C)C`, the viability, T/C by setting is: (compound 0.000949 µM) 117% and 87.2%; (compound 0.003 µM) 106% and 102%; (compound 0.00949 µM) 83% and 85%; (compound 0.03 µM) 93.5% and 83.8%; (compound 0.0949 µM) 82.8% and 69%; (compound 0.3 µM) 74.9% and 72.9%. Further, the concentration for half-maximal inhibition (IC50) (curve of compound) was above 300 nM.

For `CC(C)CC(NC(=O)C(Cc1ccccc1)NC(=O)c1cnccn1)B(O)O` (stereo unspecified), the viability, T/C by setting is: (compound 0.000949 µM) 95.5% and 91.7%; (compound 0.003 µM) 64.7% and 73.9%; (compound 0.00949 µM) 16.9% and 26.7%; (compound 0.03 µM) 2.66% and 2.25%; (compound 0.0949 µM) 0.86% and 0.8%; (compound 0.3 µM) 2.88% and 1.33%. The IC50 (curve of compound) was 4.28 nM and 5.36 nM.

Turning to `CC(CO)NC(=O)c1cc(-c2ccc(Cl)cc2)nn(-c2cnn(C)c2)c1=O` (stereo unspecified), the viability, T/C was 93.7% and 89.7% (compound 0.0316 µM); 96.4% and 110% (compound 0.1 µM); 90.4% and 96.5% (compound 0.316 µM); 106% and 108% (compound 1 µM); 96.3% and 107% (compound 3.16 µM); 78.1% and 83% (compound 10 µM). Also, where the note is “curve of compound”, the IC50 was above 10000 nM.

In the case of `CC(Nc1ccc2c(c1)OCCn1cc(N3C(=O)OCC3C(F)F)nc1-2)C(N)=O` (stereo unspecified), the viability, T/C by setting is: (compound 0.0316 µM) 76.1% and 62.1%; (compound 0.1 µM) 67.9% and 53.8%; (compound 0.316 µM) 46.1% and 36.7%; (compound 1 µM) 42.5% and 38.5%; (compound 3.16 µM) 34.2% and 31.7%; (compound 10 µM) 32% and 27.6%. Besides, for the setting “curve of compound”, the IC50 is 308 nM and 113 nM.

Take `CCCS(=O)(=O)Nc1ccc(F)c(C(=O)c2c[nH]c3ncc(-c4ccc(Cl)cc4)cc23)c1F`: the viability, T/C is 103% and 89.2% (compound 0.0316 µM); 100% and 86% (compound 0.1 µM); 128% and 114% (compound 0.316 µM); 147% and 152% (compound 1 µM); 169% and 165% (compound 3.16 µM); 137% and 149% (compound 10 µM). For the same compound, the IC50 (curve of compound) is above 10000 nM.

Regarding `CCN1CCN(Cc2ccc(Nc3ncc(F)c(-c4cc(F)c5nc(C)n(C(C)C)c5c4)n3)nc2)CC1`, the viability, T/C (compound 0.00316 µM) was 99.5% and 74%; the viability, T/C (compound 0.01 µM) is 84% and 78.8%; the viability, T/C (compound 0.0316 µM) was 87% and 73.9%; the viability, T/C (compound 0.1 µM) is 82.6% and 59.1%; the viability, T/C (compound 0.316 µM) was 80.8% and 66.4%; the viability, T/C (compound 1 µM) is 98.7% and 90.2%. The IC50 (curve of compound) is above 1000 nM.

On to `CCc1c2c(nc3ccc(O)cc13)-c1cc3c(c(=O)n1C2)COC(=O)[C@]3(O)CC`, for which the viability, T/C was 45.8% and 52.3% (compound 0.00316 µM); 37% and 43.1% (compound 0.01 µM); 44% and 44.3% (compound 0.0316 µM); 47.2% and 45.5% (compound 0.1 µM); 41.7% and 43.5% (compound 0.316 µM); 19.9% and 18.4% (compound 1 µM). Where the note is “curve of compound”, the IC50 is below 3.16 nM.

For the compound `CNC(=O)c1ccc(Nc2nc(OC3CCCC3)c3c(-c4ccc5nc(C)oc5c4)c[nH]c3n2)c(OC)c1`, the viability, T/C reads like this: (compound 0.0316 µM) 99.4% [middle of 12 runs]; (compound 0.1 µM) 93.4% [middle of 12 runs]; (compound 0.316 µM) 70.8% [middle of 12 runs]; (compound 1 µM) 68.3% [middle of 12 runs]; (compound 3.16 µM) 74.5% [middle of 12 runs]. Where the note is “compound alone, run of 08/15/2023”, the IC50 was above 10000 nM.

In the case of `COC1C=CCC(C)C(C)S(=O)(=O)NC(=O)c2ccc3c(c2)N(CC2CCC21)CC1(CCCc2cc(Cl)ccc21)CO3` (stereo unspecified), the viability, T/C (compound 0.0316 µM) was 102% and 113%; the viability, T/C (compound 0.1 µM) is 91.9% and 102%; the viability, T/C (compound 0.316 µM) was 95.6% and 101%; the viability, T/C (compound 1 µM) is 97.8% and 87.8%; the viability, T/C (compound 3.16 µM) is 87.5% and 111%; the viability, T/C (compound 10 µM) is 59.8% and 69.4%. The IC50 (curve of compound) was above 10000 nM.

For `COc1c(OCCCN2CCOCC2)ccc2c3n(c(=NC(=O)c4cnc(N)nc4)nc12)CCN3`, the viability, T/C is 78.6% and 87.6% (compound 0.00316 µM); 57.4% and 58.9% (compound 0.01 µM); 37.6% and 32.8% (compound 0.0316 µM); 33.2% and 29.1% (compound 0.1 µM); 29.7% and 26% (compound 0.316 µM); 32.4% and 33.2% (compound 1 µM). The IC50 (curve of compound) is 15.4 nM and 14.8 nM.

Consider `Cn1ncnc1[C@H]1c2n[nH]c(=O)c3cc(F)cc(c23)N[C@@H]1c1ccc(F)cc1`, for which the viability, T/C by setting is: (compound 0.000316 µM) 86.9% and 103%; (compound 0.001 µM) 110% and 95.5%; (compound 0.00316 µM) 97% and 99.8%; (compound 0.01 µM) 101% and 87.8%; (compound 0.0316 µM) 91.4%; (compound 0.1 µM) 85% and 87.1%. Also, the IC50 (curve of compound) is above 100 nM.

As for `NC(=O)C(=Cn1cnc(-c2cc(C(F)(F)F)cc(C(F)(F)F)c2)n1)c1cncnc1`, the viability, T/C is 95.7% and 97.4% (compound 0.00949 µM); 103% and 84% (compound 0.03 µM); 86.1% and 81.5% (compound 0.0949 µM); 72.6% and 58.2% (compound 0.3 µM); 89.1% and 92.3% (compound 0.949 µM); 76.9% and 76.2% (compound 3 µM). For the same compound, the IC50 (curve of compound) was above 3000 nM.

As for `Nc1ccccc1NC(=O)c1ccc(CNC(=O)OCc2cccnc2)cc1`, the viability, T/C by setting is: (compound 0.0316 µM) 102% and 93.7%; (compound 0.1 µM) 129% and 108%; (compound 0.316 µM) 144% and 139%; (compound 1 µM) 106% and 104%; (compound 3.16 µM) 78.5% and 92.5%; (compound 10 µM) 86.9% and 81.8%. In addition, the IC50 (curve of compound) was above 10000 nM.
